Among the data in ChEMBL document CHEMBL1159256, “Acetylcholinesterase inhibition by territrem B derivatives” (J Nat Prod, 1995) are IC50, inhibition and Activity values, retold here.

The target in test [1] is Acetylcholinesterase (Electrophorus electricus, UniProt O42275). In words: (§1) Inhibition of electric eel AChE by Ellman's method. To be noted: read-out: I50. A general note: In Ellman's method for cholinesterases, released thiocholine reacts with DTNB.
For test [2], the target named is Acetylcholinesterase (Electrophorus electricus) (UniProt O42275). Described as §1.
Acetylcholinesterase (Electrophorus electricus), sequence (O42275 24-633 limits assumed): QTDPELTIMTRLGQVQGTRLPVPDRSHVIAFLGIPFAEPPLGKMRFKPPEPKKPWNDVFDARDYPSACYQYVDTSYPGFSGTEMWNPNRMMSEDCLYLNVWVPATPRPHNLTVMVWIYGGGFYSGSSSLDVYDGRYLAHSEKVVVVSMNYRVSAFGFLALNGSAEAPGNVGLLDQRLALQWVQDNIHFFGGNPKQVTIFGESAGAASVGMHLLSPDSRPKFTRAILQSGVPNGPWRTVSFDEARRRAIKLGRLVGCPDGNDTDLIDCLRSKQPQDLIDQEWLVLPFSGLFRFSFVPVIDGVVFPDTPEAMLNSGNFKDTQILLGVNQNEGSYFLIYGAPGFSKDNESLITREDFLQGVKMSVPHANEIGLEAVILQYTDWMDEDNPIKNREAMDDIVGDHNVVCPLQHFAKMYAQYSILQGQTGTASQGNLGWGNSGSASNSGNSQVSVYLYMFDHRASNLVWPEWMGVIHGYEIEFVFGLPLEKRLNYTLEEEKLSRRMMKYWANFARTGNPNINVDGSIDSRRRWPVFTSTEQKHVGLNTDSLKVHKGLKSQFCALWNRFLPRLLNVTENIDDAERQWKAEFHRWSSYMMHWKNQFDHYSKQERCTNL

Activity calls are given as the source filed them. No cut-off for these calls is given here.

Acetylcholinesterase, sequence (O42275 whole entry): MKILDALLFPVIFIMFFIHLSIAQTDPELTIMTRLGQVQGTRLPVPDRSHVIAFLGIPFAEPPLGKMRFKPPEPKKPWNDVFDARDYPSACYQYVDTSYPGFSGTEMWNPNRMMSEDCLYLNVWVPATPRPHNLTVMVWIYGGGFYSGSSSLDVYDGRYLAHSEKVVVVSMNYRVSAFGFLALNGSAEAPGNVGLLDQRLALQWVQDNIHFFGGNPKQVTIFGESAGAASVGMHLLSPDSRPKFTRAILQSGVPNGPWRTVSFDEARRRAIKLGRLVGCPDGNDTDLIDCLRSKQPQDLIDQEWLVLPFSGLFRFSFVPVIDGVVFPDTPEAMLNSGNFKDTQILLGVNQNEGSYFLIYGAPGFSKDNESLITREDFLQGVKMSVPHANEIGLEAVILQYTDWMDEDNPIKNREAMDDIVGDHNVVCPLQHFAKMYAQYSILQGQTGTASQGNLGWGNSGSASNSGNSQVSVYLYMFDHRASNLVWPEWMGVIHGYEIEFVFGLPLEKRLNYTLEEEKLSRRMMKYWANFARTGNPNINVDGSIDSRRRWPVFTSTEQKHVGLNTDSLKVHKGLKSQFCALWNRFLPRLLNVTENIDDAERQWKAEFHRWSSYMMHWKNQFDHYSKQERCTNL

Consider `COc1cc(-c2cc3c(c(=O)o2)C[C@]2(O)[C@@]4(C)C(=O)C=C[C@](C)(CI)[C@]4(O)CC[C@@]2(C)O3)cc(OC)c1OC` [4BETA-IODOMETHYL-4BETA-DEMETHYL-TERRITREM B], for which the IC50 in test [1] is 290 nM.
Same read-out and setting: then `COc1cc(-c2cc3c(c(=O)o2)C[C@]2(O)[C@@]4(C)C(=O)[C@H]5O[C@H]5C(C)(C)[C@]4(O)CC[C@@]2(C)O3)cc(OC)c1OC` [2,3-EPOXYTERRITREM B], with 170 nM.
One may read the inhibition as the percentage by which the read-out fell short of the control. The molecule `COc1cc(-c2cc3c(c(=O)o2)C[C@]2(O)[C@@]4(C)C(=O)C=CC(C)(C)[C@]4(O)CC[C@@]2(C)O3)cc(OC)c1OC` [TERRITREM B] came in with an inhibition in test [2] (concentration not given here) of 50%. The IC50 in test [1] is 260 nM.
With `COc1cc(-c2cc3c(c(=O)o2)C[C@]2(O)[C@@]4(C)[C@H](O)C=CC(C)(C)[C@]4(O)CC[C@@]2(C)O3)cc(OC)c1OC` [1-DIHYDROTERRITREM B], in test [1], the IC50 stood at 79000 nM.
In the case of `COc1cc(CCC2=C(C(=O)O)C[C@]3(O)[C@@]4(C)C(=O)CCC(C)(C)[C@]4(O)CC[C@@]3(C)O2)cc(OC)c1OC`, the outcome in test [2] was inactive.
As for `COc1cc(-c2cc3c(c(=O)o2)C[C@]2(O)[C@@]4(C)C(=O)CCC(C)(C)[C@]4(O)CC[C@@]2(C)O3)cc(OC)c1OC` [2,3-DIHYDROTERRITREM B], the IC50 in test [1] came out at 2200 nM.
